# Laboratory results reported in patent US7932262B2 (Novartis AG, priority 2006, dated 2011).
# Read-outs that look alike come from different tables or passages of the source.
# Legend:
# PDK1 kinase = target: T1, PDK1 kinase (Homo sapiens, UniProt O15530); assay: PDK1 Kinase Alpha Screen Assay; format: biochemical; conditions: read-out: PDK1 IC50
# T1 sequence (O15530 1-556): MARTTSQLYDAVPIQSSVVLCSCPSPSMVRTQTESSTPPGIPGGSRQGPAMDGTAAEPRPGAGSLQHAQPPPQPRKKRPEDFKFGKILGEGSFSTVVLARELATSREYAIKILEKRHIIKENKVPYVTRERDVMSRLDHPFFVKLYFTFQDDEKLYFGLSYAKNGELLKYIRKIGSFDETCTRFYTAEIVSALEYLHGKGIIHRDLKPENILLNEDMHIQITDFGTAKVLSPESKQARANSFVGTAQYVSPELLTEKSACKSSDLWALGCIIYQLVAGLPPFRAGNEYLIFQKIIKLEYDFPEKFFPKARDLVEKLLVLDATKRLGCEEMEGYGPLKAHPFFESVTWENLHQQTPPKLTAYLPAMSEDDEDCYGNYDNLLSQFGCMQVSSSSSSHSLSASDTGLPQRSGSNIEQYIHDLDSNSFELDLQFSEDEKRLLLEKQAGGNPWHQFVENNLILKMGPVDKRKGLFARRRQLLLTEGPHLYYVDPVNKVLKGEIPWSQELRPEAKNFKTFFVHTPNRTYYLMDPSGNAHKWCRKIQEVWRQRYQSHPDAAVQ
# Protocol: 1. PDK1 Kinase Alpha Screen Assay
# Reagents/Concentrations: The PDK1-4 peptide substrate, biotin-[…]-NH2, was purchased from the Tufts University Core Facility. The final concentration of PDK1-4 peptide substrate was 50 nM The ATP substrate (Adenosine-5′-triphosphate) was purchased from Roche Diagnostics. The final concentration of ATP substrate was 10 uM. Phospho-(Ser/Thr) PKA substrate antibody was purchased from Cell Signaling Technology. The final concentration of antibody was 0.3 mg/ml. The Alpha Screen Protein A detection kit containing donor and acceptor beads was purchased from PerkinElmer Life Sciences. The final concentration of both donor and acceptor beads was 25 μg/ml. Alpha Screen was used for detection. The biotinylated-PDK1-4 peptide was phosphorylated by PDK1 kinase using the ATP substrate. The biotinylated-PDK1-4 peptide substrate was bound to the streptavidin coated donor bead. The antibody was bound to the protein A coated acceptor bead. The antibody bound to the phosphorylated form of the biotinylated PDK-1 peptide substrate, bringing the donor and acceptor beads into close proximity. Laser irradiation of the donor bead at 680 nm generated a flow of short-lived singlet oxygen molecules. When the donor and acceptor beads were in close proximity, the reactive oxygen generated by the irradiation of the donor beads initiated a luminescence/fluorescence cascade in the acceptor beads. This process led to a highly amplified signal with output in the 530-620 nm range. Assays were carried out in 50 mM Tris, pH=7.5, 10 mM MgCl2, 0.1% Bovine Serum Albumin, 0.01% Tween-20, 2 mM Dithiolthreitol, 2.5% Dimethyl Sulfoxide. Reactions were stopped by adding 50 mM Tris, pH=7.5, 90 mM EDTA, 0.1% Bovine Serum Albumin, 0.01% Tween-20.
# Procedure: To 10 μl of PDK1-4 peptide, 0.5 μl of test compound in dimethyl sulfoxide is added. PDK1 kinase and ATP are mixed. 10 μl of the PDK1 kinase/ATP mix is added to start the reaction. The reaction is allowed to proceed for 3-18 hours. The reactions are stopped by adding 10 μl of the EDTA-containing stop buffer. Beads are mixed with antibody. 25 μl of the bead/antibody mix is added to the stopped reactions. Plates are incubated at room temperature overnight to allow for detection development before being read. The assay is run is a 384-well format. […]
# PC-3 cells = assay: Cell Proliferation Assay (Cell Titer Glo), PC-3 cell line; format: cell-based; conditions: Homo sapiens
# Outline: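 Cell Titer Glo luminescence, read after fresh medium replaced the dosing medium, gave viability of PC-3 cells plated at 1000 cells/well. Compounds, 1:3 serially diluted in DMSO at 500× and then in medium, were added after 3-5 h adhesion and incubated 3 days at 37° C.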
# [1] = PC-3, Cell Proliferation Assay, PC3, read-out: CPEC50 PC3
# [2] = PC-3, PC3 cells, read-out: CPEC50 PC3
compound,measurement,setting,value
"CNS(=O)(=O)Cc1ccc(Nc2ncc3cccc(OC4CCN(C(C)C)CC4)c3n2)cc1 [Compound 82, C-{4-[8-(1-Isopropyl-piperidin-4-yloxy)-quinazolin-2-ylamino]-phenyl}-N-methyl-methanesulfonamide]",IC50,PDK1 kinase,< 5 µM
same,EC50,"PC-3 cells; PC-3, 72 h, PC-3 cells, 3 days incubation, read-out: CP EC50 PC3",< 5 µM
"CC(=O)Nc1ccc(Nc2ncc3cccc(-c4ccc(NCCN5CCCC5)nc4)c3n2)cc1 [Compound 396, N-(4-(8-(6-(2-(pyrrolidin-1-yl)ethylamino)pyridin-3-yl)quinazolin-2-ylamino)phenyl)acetamide]",IC50,PDK1 kinase; PDK1 Kinase Alpha Screen Assay,< 5 µM
same,EC50,PC-3 cells; [1],5 to 10 µM
"CC(C)N1CCC(c2c(O)ccc3cnc(Nc4ccc(N5CCOCC5)cc4)nc23)CC1 [Compound 328, 8-(1-isopropylpiperidin-4-yl)-2-(4-morpholinophenylamino)quinazolin-7-ol]",IC50,PDK1 kinase; PDK1 Kinase Alpha Screen Assay,< 5 µM
same,EC50,PC-3 cells; [1],< 5 µM
"O=C(c1ccc(Nc2ncc3c(Br)ccc(OC4CCNCC4)c3n2)cc1)N1CCOCC1 [Compound 438, (4-(5-bromo-8-(piperidin-4-yloxy)quinazolin-2-ylamino)phenyl)(morpholino)methanone]",IC50,PDK1 kinase; PDK1 Kinase Alpha Screen Assay,< 5 µM
same,EC50,PC-3 cells; [1],< 5 µM
"NS(=O)(=O)c1ccc(Nc2ncc3cccc(-c4cncc(C(=O)N5CCNC(=O)C5)c4)c3n2)cc1 [Compound 983, 4-(8-(5-(3-oxopiperazine-1-carbonyl)pyridin-3-yl)quinazolin-2-ylamino)benzenesulfonamide]",IC50,PDK1 kinase,< 5 µM
same,EC50,PC-3 cells; [2],5 to 10 µM
"CS(=O)(=O)c1cccc(Nc2ncc3ccc(OC4CCNCC4)cc3n2)c1 [Compound 570, N-(3-(methylsulfonyl)phenyl)-7-(piperidin-4-yloxy)quinazolin-2-amine]",IC50,PDK1 kinase; PDK1 Kinase Alpha Screen Assay,< 5 µM
same,EC50,PC-3 cells; [1],< 5 µM
"COc1cccc(Nc2ncc3cccc(OC4CCN(C(C)C)CC4)c3n2)c1 [Compound 531, 8-(1-isopropylpiperidin-4-yloxy)-N-(3-methoxyphenyl)quinazolin-2-amine]",IC50,PDK1 kinase; PDK1 Kinase Alpha Screen Assay,< 5 µM
same,EC50,PC-3 cells; [1],5 to 10 µM
"O=C(NC1CC1)c1ccc(Nc2ncc3cccc(OC4CCNCC4)c3n2)cc1Cl [Compound 485, 2-chloro-N-cyclopropyl-4-(8-(piperidin-4-yloxy)quinazolin-2-ylamino)benzamide]",IC50,PDK1 kinase; PDK1 Kinase Alpha Screen Assay,< 5 µM
same,EC50,PC-3 cells; [1],< 5 µM
"COCCNC(=O)c1ccc(Nc2ncc3cccc(OC4CCNCC4)c3n2)cc1Cl [Compound 486, 2-chloro-N-(2-methoxyethyl)-4-(8-(piperidin-4-yloxy)quinazolin-2-ylamino)benzamide]",IC50,PDK1 kinase; PDK1 Kinase Alpha Screen Assay,< 5 µM
same,EC50,PC-3 cells; [1],< 5 µM
"CN1CCN(C(=O)c2cncc(-c3cccc4cnc(Nc5ccc(S(N)(=O)=O)cc5)nc34)c2)CC1 [Compound 977, 4-(8-(5-(4-methylpiperazine-1-carbonyl)pyridin-3-yl)quinazolin-2-ylamino)benzenesulfonamide]",IC50,PDK1 kinase,< 5 µM
same,EC50,PC-3 cells; [2],5 to 10 µM
"CC(C)NC(=O)c1ccc(Nc2ncc3cc(C4CC4)c(OC4CCN(C(C)C)CC4)cc3n2)cc1 [Compound 637, 4-(6-cyclopropyl-7-(1-isoproylpiperidin-4-yloxy)quinazolin-2-ylamino)-N-isopropylbenzamide]",IC50,PDK1 kinase; PDK1 Kinase Alpha Screen Assay,< 5 µM
same,EC50,PC-3 cells; [1],< 5 µM
"c1cc(-c2ccc(NCCN3CCCC3)nc2)c2nc(Nc3ccc4[nH]cnc4c3)ncc2c1 [Compound 393, N-(1H-benzo[d]imidazol-5-yl)-8-(6-(2-(pyrrolidin-1-yl)ethylamino)pyridin-3-yl)quinazolin-2-amine]",IC50,PDK1 kinase; PDK1 Kinase Alpha Screen Assay,< 5 µM
same,EC50,PC-3 cells; [1],< 5 µM
"CC(C)N1CCC(Oc2ccc3cnc(Nc4cccc(C(F)(F)F)c4)nc3c2)CC1 [Compound 575, 7-(1-isopropylpiperidin-4-yloxy)-N-(3-(trifluoromethyl)phenyl)quinazolin-2-amine]",IC50,PDK1 kinase; PDK1 Kinase Alpha Screen Assay,< 5 µM
same,EC50,PC-3 cells; [1],< 5 µM
"CN1CCN(c2ccc(-c3cccc4cnc(Nc5ccc(S(N)(=O)=O)cc5)nc34)cc2)CC1 [Compound 985, 4-(8-(4-(4-methylpiperazin-1-yl)phenyl)quinazolin-2-ylamino)benzenesulfonamide]",IC50,PDK1 kinase,< 5 µM
same,EC50,PC-3 cells; [2],< 5 µM
